Measurements taken from patent publication US11691960B2, “2-[thiophen-2-yl)formamido]-N-(phenyl)-2-methylpropanamide derivatives and the use thereof as medicament” (Boehringer Ingelheim International GmbH, priority 2020, dated 2023).

Assays:
human Factor Xa = human Factor Xa (Homo sapiens (Human), UniProt P00742); experiment: Assay C: human Factor Xa chromogenic substrate assay; type: biochemical; settings: for IC50: human Factor Xa 0.86 nM, chromogenic substrate S2765; for Selectivity Assay C/Assay A: ratio IC50 Factor Xa / IC50 IDO1
Protocol: Assay C. In Vitro Testing of Human Factor Xa Potency:
Measurement of active human Factor Xa using a specific chromogenic substrate which is labeled with a p-nitro-anilino group (pNA). The cleavage in between the binding of the peptide substrate and the pNA-group is followed by a color change, which can be detected at 405 nm. The amount of cleaved substrate is directly proportional to the amount of active Xa.
[…] (100 U) human Factor Xa (Enzyme Research Laboratories; HFXa1011) were solved in 0.444 ml H2O (Millipore), which accords to a stock solution of 19.28 μM or 225 U/ml. Further dilutions were made in the assay buffer (Tris 100 mM, NaCL 150 mM, adjusted to a pH of 7.8 with HCL, containing 0.1% BSA and 0.05% Tween20). 25 mg (1 vial) of the chromogenic substrate S2765 (Chromogenix; S2765) was solved in 3.5 ml H2O (Millipore) to achieve a stock solution of 10 mM.
Compounds were solved and diluted in DMSO where the final dilution in the assay is 1:10 resulting in a final concentration of 1% DMSO.
• the prefinal dilution step was 1:10 in the assay buffer containing 11% DMSO resulting in 10% DMSO • final dilution in the assay is 1:10 resulting in a final concentration of 1% DMSO
Compounds were tested at final concentrations of 10 μM to 0.003 nM or lower. 5 μl human factor Xa (final concentration 0.86 nM), 2 μl compound dilution or assay buffer (containing 10% DMSO) and 8 μl assay buffer were pipetted in triplicates into a 384-well plate and incubated in the Thermomix at 24° C. for 10 minutes.
After addition of 5 μl chromogenic substrate (final concentration 0.5 mM) the enzyme-substrate reaction started and the kinetic measurement with the SpectraMax Monochromator was started within 1-2 minutes. • Parameter of measurement: (Spectra ax, Monochromator) • Absorbance; 1.LM 405 nM • Kinetic: 16 min each 2nd minute (9 times) • Negative Control (NC) 5 μl human factor Xa+10 μl assay buffer+5 μl Substrate • Positive Control (PC): 5 μl human factor Xa+2 μl Nafamostat (commercially available, final concentration: 1 μM)+8 μl assay buffer+5 μl Substrate • Blank (optional): 15 μl assay buffer+5 μl Substrate
Calculation of IC50, KI and the % effect at the highest concentration (Ratio)
For the calculation the average of the Vmax-values in between 120 sec to 720 sec were taken.
A x/y-Plot was created: x=log (M, Compound); y=vmax (drfu/min)
The data were analyzed with the curve fitting model: log (inhibitor) vs. response—Variable slope (four parameters)
The results of this fit were Top, Bottom, Log (IC50, M), Hillslope and IC50 (M)

[1] = Assay F: tissue distribution in mouse after oral application; type: in vivo
Text: (§1) In order to estimate the amount of administered drug to enter the brain, the brain to plasma ratio is used as surrogate parameter. As efflux transporters (e.g. P-gp) are located at the blood-brain barrier, compounds acting as substrates will be actively transported out of the brain. As these efflux transporters are not expressed in muscle tissue, the relative distribution ratio of compound between muscle and brain tissue can be used as indication for an efflux in vivo in rats or mice. In case there is no in vivo efflux detectable (in rats/mice) and in case there is no efflux in vitro (MDCK-MDR1 (P-gp)), a brain exposure in patients can be expected [see Table 7 for comparison of in vitro efflux data (MDCK-MDR1 assay) and in vivo efflux data (tissue distribution in rat/mouse after oral application)].
(§2) Assay F. Determination of Tissue Distribution in Rat/Mouse After Oral Application of Compounds
Male Han Wistar rats or C57BL/6NRj mice were orally dosed with 10 μmol/kg of compound to be investigated, suspended in 0.5% Natrosol/0.015% Tween80. Blood was collected in K3EDTA containing vials from the sublingual vein in short time Isoflurane anesthesia in rat or from the saphenous vein in conscious mice at […], 0.25, 0.5, 1, 2, 3, 4, 8 and 24 hours post administration. Subsequently, plasma was prepared by centrifugation for 5 min at 5000 rpm and stored at −20° C. […]

[2] = Assay F: tissue distribution in rat after oral application; type: in vivo
Text: as §1, §2
Male Han Wistar rats or C57BL/6NRj mice were orally dosed with 10 μmol/kg of compound to be investigated, suspended in 0.5% Natrosol/0.015% Tween80. Blood was collected in K3EDTA containing vials from the sublingual vein in short time Isoflurane anesthesia in rat or from the saphenous vein in conscious mice at […], 0.25, 0.5, 1, 2, 3, 4, 8 and 24 hours post administration. Subsequently, plasma was prepared by centrifugation for 5 min at 5000 rpm and stored at −20° C.
Tissues and CSF were sampled in anaesthetized animals. CSF was collected from the cisterna magna. Following exsanguination a femoral muscle sample was collected. Cranium and the dura matter were removed and the complete brain was collected. Before transfer of the muscle and brain sample to pre-weight homogenization devices (Precellys®) the tissues were rinsed with saline and blotted dry.
For homogenization, four parts (v/w) homogenization buffer (37.5% acetonitrile, 37.5% methanol, 25% water) were added. Tissues were homogenized with a Precellys® Evolution homogenizer. Five μL of the homogenate were added to 70 μL of a 1 to 1 (v/v) mixture of acetonitrile and methanol and frozen for at least 10 min at −18° C.
For final sample preparation, the sample was centrifuged at 4000 rpm for 1 min, and an aliquot of the resulting supernatant (30 μL) was mixed with 170 μL formic acid prior to injection to LC-MS. Calibration curves were prepared accordingly in rat and mouse plasma, respectively. All animal care and experimental procedures at Boehringer Ingelheim were conducted in compliance with the German and European Animal Welfare Act (EU Directive 2010/63/EU) and were approved by the Regierungspräsidium Tübingen as the responsible local German authority (reference number 35/9185.81-8/14-009-G).

[3] = oral 10 μmol/kg, muscle/brain tissue distribution

human Factor Xa, sequence (P00742 235-488): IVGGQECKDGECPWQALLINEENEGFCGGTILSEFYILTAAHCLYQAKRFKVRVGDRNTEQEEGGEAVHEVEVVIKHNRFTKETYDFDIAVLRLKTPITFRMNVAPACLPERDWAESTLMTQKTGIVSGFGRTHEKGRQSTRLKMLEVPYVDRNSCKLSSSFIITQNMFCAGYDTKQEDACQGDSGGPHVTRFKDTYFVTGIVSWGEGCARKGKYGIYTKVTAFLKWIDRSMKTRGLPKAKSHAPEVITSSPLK
human Factor Xa, sequence (P00742 41-179 partner): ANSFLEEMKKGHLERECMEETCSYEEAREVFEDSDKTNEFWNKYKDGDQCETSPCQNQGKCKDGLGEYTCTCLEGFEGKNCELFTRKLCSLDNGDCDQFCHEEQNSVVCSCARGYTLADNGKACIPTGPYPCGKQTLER

## CC(C)(NC(=O)c1ccc(Cl)s1)C(=O)Nc1ccc(Cl)c(F)c1 [Example 3, 2-[(5-chlorothiophen-2-yl)formamido]-N-(4-chloro-3-fluorophenyl)-2-methylpropanamide]
Human Factor Xa
  IC50: > 10 µM
  Selectivity Assay C/Assay A: >55
[1]; after oral application
  in vivo efflux (in words): neither in vitro nor in vivo efflux
[1]; [3]
  in vivo efflux (Assay F): 0.60 (mouse)

## CC(C)(NC(=O)c1ccc(Cl)s1)C(=O)Nc1ccc(Br)cc1 [Example 4, 2-[(5-chlorothiophen-2-yl)formamido]-N-(4-bromophenyl)-2-methylpropanamide]
Human Factor Xa
  IC50: > 10 µM
  Selectivity Assay C/Assay A: >42
[2]; after oral application
  in vivo efflux (in words): neither in vitro nor in vivo efflux
[2]; [3]
  in vivo efflux (Assay F): 0.50 (rat)
